Common to all, as to assay type: cell-based, human
One assay concerns peptide-pulsed C1R-A11. Briefly: In vitro CTL induction, IFN-gamma ELISPOT assay (HLA-A*1101). To be noted: CTLs induced from HLA-A*1101-positive donors, against peptide-pulsed C1R-A11, compared with control. The text has this:
(§1) Monocyte-derived dendritic cells (DCs) were used as the antigen-presenting cell to induce a cytotoxic T lymphocyte (CTL) response against peptides presented on human leukocyte antigens (HLAs). As described in the other sections, DCs were generated in vitro (Nakahara S et al., Cancer Res 2003, 63(14): 4112-8). Specifically, peripheral-blood mononuclear cells isolated from healthy volunteers (HLA-A*1101-positive) with the Ficoll-Paque plus solution (Pharmacia) were separated by attaching to plastic tissue culture dishes (Becton Dickinson) and concentrated as a monocyte fraction. The monocyte-concentrated population was cultured in the presence of 1000 IU/ml granulocyte macrophage colony-stimulating factor (R&D System) and 1000 IU/ml interleukin(IL)-4 (R&D System) in an AIM-V medium (Invitrogen) containing 2% heat-inactivated autologous serum (AS). After seven days of culturing, the cytokine-induced DCs were pulsed with 20 micro-g/ml each of the synthesized peptides in an AIM-V medium at 37 degrees C. for three hours in the presence of 3 micro-g/ml beta 2-microglobulin. The generated cells appeared to express on their cell surface DC-associated molecules such as CD80, CD83, CD86 and HLA class II (data not shown). Next, these peptide-pulsed DCs were inactivated by X-ray irradiation (20 Gy), and mixed in a 1:20 ratio with autologous CD8^+ T cells obtained by positive selection using the CD8 Positive Isolation Kit (Dynal). These culture products were seeded in a 48-well plate (Corning). Each well was made to contain 1.5×10^4 peptide-pulsed DCs, 3×10^5 CD8^+ T cells and 10 ng/ml IL-7 (R&D System) in 0.5 ml of the AIM-V/2% AS medium. Three days later, these culture products were added with a final concentration of 20 IU/ml IL-2 (CHIRON). On day 7 and day 14, T cells were further stimulated with peptide-pulsed autologous DCs. The DCs were prepared every time by the same method as above. On day 21, after the third peptide stimulation, CTLs were examined against the peptide-pulsed C1R-A11 by a human interferon (IFN)-gamma enzyme-linked immunospot (ELISPOT) assay (Tanaka H et al., Br J Cancer 2001, 84(1): 94-9; Umano Y et al., Br J Cancer 2001, 84(8): 1052-7; Uchida N et al., Clin Cancer Res 2004, 10(24): 8577-86; Suda T et al., Cancer Sci 2006, 97(5): 411-9; Watanabe T et al., Cancer Sci 2005, 96(8): 498-506).
To examine specific CTL activity, an IFN-gamma ELISPOT assay and an IFN-gamma enzyme-linked immunosorbent assay (ELISA) were performed. Specifically, peptide-pulsed C1R-A11 (1×10^4 cells/well) was prepared as the stimulator cell. The induced CTLs, i.e., CTL lines and CTL clones, were used as the responder cell. The IFN-gamma ELISPOT assay and IFN-gamma ELISA were performed according to the manufacturer's manual.

The subject of the next assay is peptide-pulsed C1R-A03. The experiment in a line: In vitro CTL induction, IFN-gamma ELISPOT assay (HLA-A*0301). To be noted: CTLs induced from HLA-A*0301-positive donors, against peptide-pulsed C1R-A03, compared with control.
Excerpt: as §1, with “(HLA-A*0301-positive)” for “(HLA-A*1101-positive)”, “C1R-A03” for “C1R-A11”
(§2) To examine specific CTL activity, an IFN-gamma ELISPOT assay and an IFN-gamma enzyme-linked immunosorbent assay (ELISA) were performed. Specifically, peptide-pulsed C1R-A03 (1×10^4 cells/well) was prepared as the stimulator cell. The induced CTLs, i.e., CTL lines and CTL clones, were used as the responder cell. The IFN-gamma ELISPOT assay and IFN-gamma ELISA were performed according to the manufacturer's manual.

Assay [1] concerns C1R-A03 cells pulsed with the respective peptide. The experiment in a line: IFN-gamma ELISA of CTL lines and CTL clones (HLA-A*0301). The method, then: CTLs were propagated in culture using methods similar to those disclosed by Riddell et al. (Walter E A et al., N Engl J Med 1995, 333(16): 1038-44; Riddell S R et al., Nat Med 1996, 2(2): 216-23). The CTLs were co-cultured in a total of 25 ml AIM-V medium containing 5% AS (AIM-V/5% AS) and 40 ng/ml anti-CD3 antibody with two types of Mitomycin C-treated human B lymphoblastoid cell lines at 5×10^6 cells/flask. One day after beginning of the culturing, 120 IU/ml IL-2 was added to the culture. On days 5, 8 and 11, a fresh AIM-V/5% AS medium containing 30 IU/ml IL-2 was added to the culture (Tanaka H et al., Br J Cancer 2001, 84(1): 94-9; Umano Y et al., Br J Cancer 2001, 84(8): 1052-7; Uchida N et al., Clin Cancer Res 2004, 10(24): 8577-86; Suda T et al., Cancer Sci 2006, 97(5): 411-9; Watanabe T et al., Cancer Sci 2005, 96(8): 498-506).
Dilution of CTLs was carried out to make 1 and 10 cells/well in 96 round-bottomed microtiter plates (Nalge Nunc International). The CTLs were co-cultured with two types of Mitomycin C-treated human B lymphoblastoid cell lines at 1×10^4 cells/well in a total of 150 micro-l/well 5% AS-containing AIM-V (AIM-V/5% AS) medium with 30 ng/ml anti-CD3 antibody and 125 IU/ml IL-2. Ten days later, IL-2 was added to the medium at 50 micro-l/well to reach a final concentration of 125 IU/ml. On day 14, the CTL activity was tested, and the CTL clones were propagated using the same method as described above (Uchida N et al., Clin Cancer Res 2004, 10(24): 8577-86; Suda T et al., Cancer Sci 2006, 97(5): 411-9; Watanabe T et al., Cancer Sci 2005, 96(8): 498-506).
as §2
(In an ELISA, binding on a coated surface is turned into a signal by an enzyme label.)

Turning to “ALLLVVALPR (a peptide derived from URLC10) [SEQ ID NO 12, URLC10-derived 10mer peptide, start position 63]”, the “peptide-specific CTL activity (IFN-gamma production)” value (from here on “peptide-specific CTL activity”) in the assay with peptide-pulsed C1R-A11 is reported as “specific IFN-gamma production was not observed”; with peptide-pulsed C1R-A03, “potent IFN-gamma production”.
With “AMERPKPEEK (a peptide derived from URLC10) [SEQ ID NO 16, URLC10-derived 10mer peptide, start position 149]”, the “peptide-specific CTL activity” value in the assay with peptide-pulsed C1R-A03 was “potent IFN-gamma production”.
Same read-out and setting: to “CSAGCAAMER (a peptide derived from URLC10) [SEQ ID NO 15, URLC10-derived 10mer peptide, start position 143]” belongs “potent IFN-gamma production”; to “GLWLAILLLL (a peptide derived from URLC10) [SEQ ID NO 27, URLC10-derived 10mer peptide, start position 204]”, “potent IFN-gamma production”.
With “GPPINSSVFK (a peptide derived from URLC10) [SEQ ID NO 17, URLC10-derived 10mer peptide, start position 183]”, the “peptide-specific CTL activity” value in the assay with peptide-pulsed C1R-A03 is recorded as “potent IFN-gamma production”.
Still for that read-out and setting: next, “IAAVKIFPR (a peptide derived from URLC10) [SEQ ID NO 3, URLC10-derived 9mer peptide, start position 127]”: “potent IFN-gamma production”; “ILLLLASIAA (a peptide derived from URLC10) [SEQ ID NO 30, URLC10-derived 10mer peptide, start position 209]”: “potent IFN-gamma production”; “KIFPRFFMV (a peptide derived from URLC10) [SEQ ID NO 6, URLC10-derived 9mer peptide, start position 131]”: “potent IFN-gamma production”.
The same measure, in the same setting: next, “LLEEPMPFFY (a peptide derived from URLC10) [SEQ ID NO 18, URLC10-derived 10mer peptide, start position 161]”: “potent IFN-gamma production”.
As to “LLLVVALPR (a peptide derived from URLC10) [SEQ ID NO 5, URLC10-derived 9mer peptide, start position 64]”, the “peptide-specific CTL activity” value with peptide-pulsed C1R-A03 is given as “potent IFN-gamma production”.
In the case of “MPFFYLKCCK (a peptide derived from URLC10) [SEQ ID NO 22, URLC10-derived 10mer peptide, start position 166]”, the “peptide-specific CTL activity” value with peptide-pulsed C1R-A03 was “potent IFN-gamma production”. Also, the “IFN-gamma production of CTL clone” value in assay [1] (CTL clone by limiting dilution, against peptide-pulsed C1R-A03 cells) is “Potent IFN-gamma production”. Also, in assay [1] (CTL line against peptide-pulsed versus non-pulsed target cells), the “IFN-gamma production of CTL line” value is on record as “potent IFN-gamma production”.
As to “RGGRGSPYR (a peptide derived from URLC10) [SEQ ID NO 9, URLC10-derived 9mer peptide, start position 18]”, in the assay with peptide-pulsed C1R-A11, the “peptide-specific CTL activity” value is “potent IFN-gamma production”.
Consider “RQAPAGGRR (a peptide derived from URLC10) [SEQ ID NO 8, URLC10-derived 9mer peptide, start position 7]”, for which the “peptide-specific CTL activity” value in the assay on peptide-pulsed C1R-A03 is given as “specific IFN-gamma production was not observed”.
Consider “RVWCHVCER (a peptide derived from URLC10) [SEQ ID NO 1, URLC10-derived 9mer peptide, start position 98]”, for which the “peptide-specific CTL activity” value with peptide-pulsed C1R-A11 and with peptide-pulsed C1R-A03 was “potent IFN-gamma production” each time.
Regarding “VIAAVKIFPR (a peptide derived from URLC10) [SEQ ID NO 14, URLC10-derived 10mer peptide, start position 126]”, the “peptide-specific CTL activity” value in the assay on peptide-pulsed C1R-A03 was “potent IFN-gamma production”.

Source of the values: patent US10576097B2, “URLC10-derived peptide and vaccine containing same” (ONCOTHERAPY SCIENCE, INC., priority 2014, dated 2020).
